Values after ≈ are worked out from the molar mass of the structure shown.
Key:
[1] = test system: Pseudomonas aeruginosa (Pae, PAWT, ATCC #27853); assay: MIC against Pseudomonas aeruginosa reference strain PAWT; type: cell-based; details: Pseudomonas aeruginosa wild type PAWT
From the text: (§1) For evaluation of efficacy, we assembled panels of representative gram-negative pathogens, including Pseudomonas aeruginosa (Pae, PAWT, ATCC #27853), Klebsiella pneumoniae (Kpn, KPWT, ATCC #700603), Acinetobacter baumannii (Aba, ABWT, ATCC #BAA-747) and Escherichia coli (Eco, ECWT, ATCC #25922). These reference strains are useful indicator organisms to characterize compound activity against bacteria from a pathogenic genus in the absence of multiple resistance mechanisms. Two strains (PAWT and ECWT) are reference strains cited within the Clinical and Laboratory Standards Institute (CLSI) Standards for susceptibility testing by Minimum Inhibitory Concentration (MIC) (SXPS2) and are well suited for quality control. ABWT and ECWT are widely susceptible to aminoglycoside antibiotics, whereas PAWT and KPWT harbor a single aminoglycoside-modifying enzyme (AGME) that targets 4,6-substituted-2-deoxystreptamine AGs. […]

[2] = test system: Klebsiella pneumoniae (Kpn, KPWT, ATCC #700603); assay: MIC against Klebsiella pneumoniae reference strain KPWT; type: cell-based; details: for MIC KPWT: Klebsiella pneumonia KPWT, Table 5 (unit not given), in µg/mL
From the text: as §1, with “These reference strains are useful indicator organisms to characterize compound activity against bacteria from a pathogenic genus in the absence of multiple resistance mechanisms.” left out

[3] = test system: Pseudomonas aeruginosa PR1 (clinical isolate with intermediate aminoglycoside resistance); assay: MIC against Pseudomonas aeruginosa clinical isolate PR1; type: cell-based; details: Pseudomonas aeruginosa resistant strain PR1
From the text: (§2) Pseudomonas aeruginosa is a prominent nosocomial pathogen. In addition to intrinsic antibiotic resistance to several antibiotics, Pseudomonas has acquired multiple additional mechanisms of resistance. As a result, therapeutic options for the treatment of infections caused by Pseudomonas aeruginosa are limited. We acquired clinical isolates of Pseudomonas aeruginosa (Micromyx LLC, Kalamazoo, Mich.), and used this panel to test compounds for Pseudomonicidal activity. […] For each strain and antibiotic, the mechanism(s) of resistance was inferred from the resistance profile. The presence of specific AGMEs was confirmed by colony PCR.

[4] = test system: Pseudomonas aeruginosa PR2 (clinical isolate with intermediate aminoglycoside resistance); assay: MIC against Pseudomonas aeruginosa clinical isolate PR2; type: cell-based; details: Pseudomonas aeruginosa resistant strain PR2
From the text: as §2

[5] = test system: Pseudomonas aeruginosa PR3 (high-level, efflux-mediated, pan-aminoglycoside resistance); assay: MIC against Pseudomonas aeruginosa clinical isolate PR3; type: cell-based; details: for MIC PR3: Pseudomonas aeruginosa resistant strain PR3
From the text: as §2

[6] = test system: Klebsiella pneumoniae KR1 (clinical isolate with intermediate aminoglycoside resistance); assay: MIC against Klebsiella pneumoniae clinical isolate KR1; type: cell-based; details: Klebsiella pneumonia KR1; in µg/mL
From the text: (§3) Klebsiella pneumoniae (Kpn) and Escherichia coli (Eco) are gram-negative (like Pae), enteric pathogens with increasing clinical relevance. Many clinical isolates of Kpn and Eco harbor extended-spectrum beta-lactamases and are no longer sensitive to most beta-lactam antibiotics. We acquired clinical isolates of Klebsiella pneumoniae and Escherichia coli (Micromyx LLC, Kalamazoo, Mich.) and used this panel to test compounds for anti-enteric activity.

[7] = test system: Klebsiella pneumoniae KR2 (clinical isolate with intermediate aminoglycoside resistance); assay: MIC against Klebsiella pneumoniae clinical isolate KR2; type: cell-based; details: Klebsiella pneumonia KR2
From the text: as §3

[8] = test system: Klebsiella pneumoniae KR3 (clinical isolate possessing high-level aminoglycoside resistance); assay: MIC against Klebsiella pneumoniae clinical isolate KR3; type: cell-based; details: Klebsiella pneumonia KR3; in µg/mL
From the text: as §3

[9] = test system: Acinetobacter baumannii (Aba, ABWT, ATCC #BAA-747); assay: MIC against Acinetobacter baumannii reference strain ABWT; type: cell-based
From the text: as §1

[10] = test system: more than fifty resistant contemporary clinical isolates of Pseudomonas aeruginosa; assay: MIC90 against panel of resistant clinical isolates of Pseudomonas aeruginosa; type: cell-based
From the text: To assess this, a panel of more than fifty resistant contemporary clinical isolates of Pseudomonas aeruginosa were obtained from multiple sources including JMI Laboratories (North Liberty, Iowa), Pfizer (Groton, Conn.), Micromyx (Kalamazoo, Mich.), Dr. J. Chow (Wayne State University). Strains were characterized for resistance to a wide variety of classes of antibiotics including aminoglycosides, β-lactams and fluoroquinolones. […] This reflects the difficulty in treating clinical Pseudomonas aeruginosa infections. […] Using this stringent panel, we tested a subset of compounds of the invention (Table 4).

[11] = test system: fifty resistant contemporary clinical isolates of Klebsiella pneumoniae; assay: MIC90 against panel of resistant clinical isolates of Klebsiella pneumoniae; type: cell-based; details: for MIC90 Klebsiella pneumonia: stringent panel of resistant clinical isolates, Table 5
From the text: Using this stringent Klebsiella pneumoniae panel, we tested a subset of compounds of the invention.

panel of E. coli strains = assay: MIC90 against a panel of E. coli strains; type: cell-based; details: in µg/mL
[12] = test system: Acinetobacter baumannii AB1; assay: MIC against Acinetobacter baumannii clinical isolate AB1; type: cell-based
From the text: (§4) Acinetobacter baumannii is another clinically important and very challenging gram negative pathogen. Members of the Acinetobacter genus, including baumannii, have a remarkable ability to upregulate and acquire resistance determinants. Coupled with its ability to survive for prolonged periods in a hospital environment, A. baumannii is an emerging threat for healthcare institutions globally. We acquired clinical isolates of Acinetobacter baumannii and used this panel to test compounds for anti-Acinetobacter activity. We first tested reference AGs against our panel of Aba strains.

[13] = test system: Acinetobacter baumannii AB2; assay: MIC against Acinetobacter baumannii clinical isolate AB2; type: cell-based
From the text: as §4

[14] = test system: Acinetobacter baumannii AB3; assay: MIC against Acinetobacter baumannii clinical isolate AB3; type: cell-based
From the text: as §4

[15] = test system: fifty resistant contemporary clinical isolates of Acinetobacter baumannii; assay: MIC90 against panel of resistant clinical isolates of Acinetobacter baumannii; type: cell-based
From the text: As in the case of Pseudomonas aeruginosa and Klebsiella pneumoniae, we considered whether the SAR observed against select Acinetobacter baumannii strains 1, 2 or 3 was indicative of general potency. […] Using this stringent Acinetobacter baumannii panel, we tested a subset of compounds of the invention.

[16] = test system: Escherichia coli (Eco, ECWT, ATCC #25922); assay: MIC against Escherichia coli reference strain ECWT; type: cell-based; details: ATCC25922
From the text: For evaluation of efficacy, we assembled panels of representative gram-negative pathogens, including Pseudomonas aeruginosa (Pae, PAWT, ATCC #27853), Klebsiella pneumoniae (Kpn, KPWT, ATCC #700603), Acinetobacter baumannii (Aba, ABWT, ATCC #BAA-747) and Escherichia coli (Eco, ECWT, ATCC #25922). These reference strains are useful indicator organisms to characterize compound activity against bacteria from a pathogenic genus in the absence of multiple resistance mechanisms. Two strains (PAWT and ECWT) are reference strains cited within the Clinical and Laboratory Standards Institute (CLSI) Standards for susceptibility testing by Minimum Inhibitory Concentration (MIC) (SXPS2) and are well suited for quality control. ABWT and ECWT are widely susceptible to aminoglycoside antibiotics, whereas PAWT and KPWT harbor a single aminoglycoside-modifying enzyme (AGME) that targets 4,6-substituted-2-deoxystreptamine AGs.

P. aeruginosa 6294 MLP-3 = assay: Rat neutropenic thigh model; type: in vivo
Method: The compound identified as SXP 2523 was selected for further testing in vivo. Twenty male Sprague Dawley rats were pre-treated with cyclophosphamide to render them neutropenic on day −4 and day −1 with 100 mg/kg and 75 mg/kg respectively. Rats were infected with P. aeruginosa 6294 MLP-3, via injection into the right thigh muscle of 0.1 mL per rat. Two hours post infection rats were treated intravenously with either SXP-2523 or amikacin in a total dose of 10 or 60 mg/kg, respectively. The test article and control agent were delivered at 2, 4, and 6 hours post infection. Five rats were treated with each drug concentration. One group of five rats was euthanized at initiation of treatment and thigh CFUs were processed (T=Rx). Twenty-four hours post infection rats were euthanized by CO2 inhalation. The right thigh muscles of the rats were aseptically removed, weighed, homogenized, serially diluted, and plated on MacConkey medium. The plates were incubated overnight at 37° C. in 5% CO2. CFU per gram of thigh was calculated by enumerating the plated colonies then adjusting for serial dilutions and the weight of the thigh. The following table 7 summarizes the results Table 6: […]

[17] = test system: resistant strain of P. aeruginosa (P. aeruginosa 6294 MLP-3); assay: Rat neutropenic thigh model against resistant P. aeruginosa; type: in vivo; details: resistant P. aeruginosa
Method: The compound identified as SXP 2523 was further tested in vivo against a resistant strain of P. aeruginosa. Twenty male Sprague Dawley rats were rendered neutropenic by treatment with cyclophosphamide on day −4 and day −1 with 100 mg/kg and 75 mg/kg, respectively. Rats were infected with P. aeruginosa 6294 MLP-3, via injection into the right thigh muscle of 0.1 mL per rat. Two hours post infection rats were treated intravenously with either SXP-2523 or amikacin in a total dose of 10 or 60 mg/kg, respectively. The test article and control agent were delivered at 2, 4, and 6 hours post infection. Five rats were treated with each drug concentration. One group of five rats were euthanized at initiation of treatment and thigh CFUs were determined (T=Rx). Twenty-four hours post infection; rats were euthanized by CO2 inhalation. The right thigh muscles of the rats were aseptically removed, weighed, homogenized, serially diluted, and plated on BHI medium. The plates were incubated overnight at 37° C. in 5% CO2. CFU per gram of thigh was calculated by enumerating the plated colonies then adjusting for serial dilutions and the weight of the thigh.

[18] = test system: Klebsiella pneumoniae screening panel KPWT, KR1, KR2, KR3; assay: Klebsiella pneumoniae screening panel (KPWT, KR1, KR2, KR3), reference AGs; type: cell-based
From the text: as §3

[19] = Log CFU/thigh, total dose 10 mg/kg SXP-2523 or 60 mg/kg amikacin iv
[20] = neutropenic male Sprague Dawley rats, iv at 2, 4, 6 h post infection, total dose 10 mg/kg SXP-2523 or 60 mg/kg amikacin, 24 h post infection

Compound | MIC PAWT [1] [µg/mL] | MIC KPWT [2] | MIC PR1 [3] [µg/mL] | MIC PR2 [4] [µg/mL] | MIC PR3 [5] [µg/mL] | MIC KR1 [6] | MIC KR2 [7] | MIC KR3 [8] | MIC ABWT [9] [µg/mL] | MIC90 Pseudomonas aeruginosa [10] [µg/mL] | MIC90 Klebsiella pneumonia [11] [µg/mL] | MIC90 E. coli (panel of E. coli strains) | MIC AB1 [12] [µg/mL] | MIC AB2 [13] [µg/mL] | MIC AB3 [14] [µg/mL] | MIC90 Acinetobacter baumannii [15] [µg/mL] | other results
NCC[C@H](O)C(=O)N[C@@H]1C[C@H](N)[C@@H](O[C@H]2O[C@H](CN)[C@@H](O)[C@H](O)[C@H]2O)[C@@H](F)[C@H]1O[C@H]1O[C@H](CNC2CC2)[C@@H](O)[C@H](N)[C@H]1O [SXP1212-56″-16] | 1 (≈ 1.6 µM) | <0.25 | 2 to 8 | <0.25 to 4 | 32 (≈ 51.1 µM) | 0.5-1 | 1 | 16 | – | – | – | – | – | – | – | – | –
NCCC(O)C(=O)NC1CC(N)C(OC2OC(CN)C(O)CC2N)C(F)C1OC1OC(CNCC(O)CN)C(O)C(N)C1O (stereo not drawn) [SXP 2524] | 0.25 (≈ 0.389 µM) | 0.5 | 4 (≈ 6.22 µM) | 0.5 (≈ 0.778 µM) | 8 (≈ 12.4 µM) | 0.5-1 | 0.5 | 0.5-1 | 0.5 (≈ 0.778 µM) | 4 (≈ 6.22 µM) | 1 (≈ 1.56 µM) | 2-4 | 2 (≈ 3.11 µM) | 1 (≈ 1.56 µM) | 8 (≈ 12.4 µM) | 2 (≈ 3.11 µM) | –
NCCC(O)C(=O)NC1CC(N)C(OC2OC(CN)C(O)CC2N)C(F)C1OC1OC(CNCC2CNC2)C(O)C(N)C1O (stereo not drawn) [SXP 2525] | 0.25 to 0.5 | 0.5 | 8 (≈ 12.5 µM) | 1 (≈ 1.57 µM) | 8 (≈ 12.5 µM) | 1 | 0.5 | 1 | 0.5 (≈ 0.783 µM) | 4 (≈ 6.26 µM) | 1 (≈ 1.57 µM) | 2 | 2 to 4 | 1 (≈ 1.57 µM) | 8 (≈ 12.5 µM) | 2 (≈ 3.13 µM) | –
NCCC(O)C(=O)NC1CC(N)C(OC2OC(CN)C(O)CC2N)C(F)C1OC1OC(CNC2CNC2)C(O)C(N)C1O (stereo not drawn) [SXP 2554] | 0.25 (≈ 0.4 µM) | 0.125 | 2 (≈ 3.2 µM) | 0.5 (≈ 0.8 µM) | 8 (≈ 12.8 µM) | 0.25 | 0.125 | 0.25-0.5 | 0.25 (≈ 0.4 µM) | 4 (≈ 6.4 µM) | 0.5 (≈ 0.8 µM) | 2 | 0.5 (≈ 0.8 µM) | 0.25 to 0.5 | 2 to 4 | 2 (≈ 3.2 µM) | –
NCC[C@H](O)C(=O)N[C@@H]1C[C@H](N)[C@@H](O[C@H]2O[C@H](CN)[C@@H](O)[C@H](O)[C@H]2O)[C@H](O)[C@H]1O[C@H]1O[C@H](CO)[C@@H](O)[C@H](N)[C@H]1O [amikacin] | – | – | – | – | – | – | – | – | – | – | – | – | – | – | – | – | MIC ([1]; ATCC27853): 1 to 2 µg/mL (≈ 1.71 to 3.42 µM); MIC ([2]; ATCC700603, Klebsiella pneumoniae KPWT, Table 2): 1 µg/mL (≈ 1.71 µM); MIC ([9]; ATCCBAA747): 1 µg/mL (≈ 1.71 µM); MIC [16]: 2 to 4 µg/mL (≈ 3.42 to 6.83 µM); MIC [3]: 8 µg/mL (≈ 13.7 µM); MIC [4]: 8 to 16 µg/mL (≈ 13.7 to 27.3 µM); MIC ([5]; Pseudomonas aeruginosa, read-out: MIC PR3): 64 µg/mL (≈ 109 µM); MIC90 ([10]; Pseudomonas aeruginosa): ≥ 64 µg/mL; MIC90 ([11]; Klebsiella pneumoniae, fifty resistant contemporary clinical isolates, reference antibiotics): ≥ 64 µg/mL; Change from 24 hr. control (P. aeruginosa 6294 MLP-3; [19]): −1.49; Change from T = Rx controls (P. aeruginosa 6294 MLP-3; [19]): 1.59; Log CFU/thigh (P. aeruginosa 6294 MLP-3; [20]): 5.77 Log CFU/thigh; Change from 24 hr. control [17, 19]: −2.73; Change from T = Rx controls [17, 19]: 0.43; Log CFU/thigh [17, 20]: 3.92 Log CFU/thigh; potency against Klebsiella pneumoniae test panel [18]: potency against 3 of 4 strains tested

Reference: patent US8586552B2, “4,6-substituted 2,5-dideoxystreptamine aminoglycoside antibiotics” (SelectX Pharmaceuticals, Inc., priority 2012, dated 2013)
